Test results: ChEMBL document CHEMBL1129407, “Synthesis and evaluation of heterocyclic carboxamides as potential antipsychotic agents” (J Med Chem, 1996)

Experiments:
[1] = target: T1, 5-hydroxytryptamine receptor 1A (Mus musculus, UniProt Q64264); assay: Inhibitory activity against serotonin 5-hydroxytryptamine 1A receptor from mice.
T1 sequence (Q64264 whole entry): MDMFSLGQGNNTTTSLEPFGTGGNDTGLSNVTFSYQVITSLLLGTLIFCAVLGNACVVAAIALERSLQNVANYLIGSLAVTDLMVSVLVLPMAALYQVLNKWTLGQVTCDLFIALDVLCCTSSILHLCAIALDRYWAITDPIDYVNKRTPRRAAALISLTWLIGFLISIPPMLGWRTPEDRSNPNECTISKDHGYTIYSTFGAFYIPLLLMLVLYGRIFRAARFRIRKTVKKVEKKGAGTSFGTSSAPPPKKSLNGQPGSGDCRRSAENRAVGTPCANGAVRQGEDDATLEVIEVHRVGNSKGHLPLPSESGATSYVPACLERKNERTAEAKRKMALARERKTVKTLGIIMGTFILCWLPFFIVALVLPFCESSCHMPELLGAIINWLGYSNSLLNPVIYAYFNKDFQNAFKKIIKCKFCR

[2] = target: Serotonin 2 (5-HT2) receptor (Mus musculus, UniProt Q02152+P34968+P35363); assay: Inhibitory activity against serotonin 5-hydroxytryptamine 2 receptor from mice.; type: protein assay
D(2) dopamine receptor [3] = target: T2, D(2) dopamine receptor (Mus musculus, UniProt P61168); assay: Inhibition of mouse Dopamine receptor D2
Mus musculus [4] = assay: Compound was tested for antagonist activity against apomorphine-induced mouse climbing (ip). using in vivo method; type: functional
Mus musculus [5] = assay: Compound was tested for antagonist activity against apomorphine-induced mouse climbing(intraperitoneally - ip). using in vivo method; type: functional
Mus musculus [6] = assay: Compound was tested for antagonist activity against apomorphine-induced mouse climbing(per orally - po). using in vivo method; type: functional
D(2) dopamine receptor [7] = target: T2, D(2) dopamine receptor; assay: Inhibitory activity against Dopamine receptor D2 from mice
Mus musculus [8] = assay: Compound was tested for antagonist activity against apomorphine-induced mouse stereotypy(per orally - po). using in vivo method; type: functional
Mus musculus [9] = organism: Mus musculus; assay: Compound was tested for induction of catalepsy in mouse.; type: functional
Mus musculus [10] = assay: Compound was tested for antagonist activity against apomorphine-induced mouse climbing (po). using in vivo method; type: functional
Mus musculus [11] = assay: Compound was tested for antagonist activity against apomorphine-induced mouse climbing (po) using in vivo method; type: functional
Mus musculus [12] = assay: Compound was tested for antagonist activity against apomorphine-induced mouse climbing (ip) using in vivo method; type: functional
Mus musculus [13] = organism: Mus musculus; assay: Compound was tested for induction of catalepsy in mouse; type: functional
Mus musculus [14] = assay: Compound was tested for antagonist activity against apomorphine-induced mouse stereotypy (po) using in vivo method; type: functional
[15] = Ratio of ED50 for induction of catalepsy to ED50 for antagonism of apomorphine-induced climbing.; type: functional
[16] = Ratio of ED50 for antagonism of apomorphine induced stereotypy to ED50 for antagonism of apomorphine-induced climbing.; type: functional

T2 sequence (P61168 whole entry): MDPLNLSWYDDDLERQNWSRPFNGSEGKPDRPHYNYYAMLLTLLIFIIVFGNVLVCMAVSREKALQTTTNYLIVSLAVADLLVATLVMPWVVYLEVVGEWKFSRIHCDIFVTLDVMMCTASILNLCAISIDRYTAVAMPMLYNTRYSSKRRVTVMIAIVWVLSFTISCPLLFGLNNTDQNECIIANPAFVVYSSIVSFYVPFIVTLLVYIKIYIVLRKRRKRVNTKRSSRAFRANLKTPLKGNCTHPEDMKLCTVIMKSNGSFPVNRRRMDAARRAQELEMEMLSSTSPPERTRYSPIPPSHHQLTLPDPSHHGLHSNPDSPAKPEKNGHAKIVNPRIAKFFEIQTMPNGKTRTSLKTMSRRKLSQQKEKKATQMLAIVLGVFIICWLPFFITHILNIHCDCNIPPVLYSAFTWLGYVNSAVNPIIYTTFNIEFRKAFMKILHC

Row | IC50 [1] [nM] | IC50 [2] [nM] | IC50 (D(2) dopamine receptor [3]) [nM] | IC50 (D(2) dopamine receptor [7]) [nM] | SMILES | ED50 (Mus musculus [4]) [mg/kg] | ED50 (Mus musculus [10]) [mg/kg] | also measured
1 | 1.9 | 2.4 | 28 |  | O=C(NCCCCN1CCN(c2nsc3ccccc23)CC1)c1cccc2c1NCCC2 | < 25 |  | 
2 | 2.8 | 1.5 | 24 |  | O=C(NCCCCN1CCN(c2nsc3ccccc23)CC1)c1ccccn1 |  |  | ED50 (Mus musculus [5]): < 25 mg/kg; ED50 (Mus musculus [6]): 16.6 mg/kg
3 | 4.2 | 0.29 |  | 7.6 | O=C(NCCCCN1CCN(c2nsc3ccccc23)CC1)c1cccc2[nH]cnc12 | > 25 |  | 
4 | 4.3 | 2.4 |  | 14 | O=C(NCCCCN1CCN(c2nsc3ccccc23)CC1)c1cccc2cccnc12 | < 25 | 54.4 | 
5 | 7 | 1.5 |  |  | Nc1cnccc1C(=O)NCCCCN1CCN(c2nsc3ccccc23)CC1 |  |  | 
6 | 6.6 | 2.3 |  | 25 | O=C(NCCCCN1CCN(c2nsc3ccccc23)CC1)c1ccncc1 |  |  | ED50 (Mus musculus [11]): 34 mg/kg; ED50 (Mus musculus [12]): 4.6 mg/kg
7 | 4.3 | 3.4 | 34 |  | O=C(NCCCCN1CCN(c2nsc3ccccc23)CC1)c1cccc2c1NCC2 | 2.6 | 18.6 | 
8 | 5.1 | 3.1 |  | 4.7 | Nc1ccncc1C(=O)NCCCCN1CCN(c2nsc3ccccc23)CC1 | > 25 |  | 
9 | 3.3 | 1.5 | 7.8 |  | Nc1ncccc1C(=O)NCCCCN1CCN(c2nsc3ccccc23)CC1 | 6.4 | 17.1 | 
10 | 3.8 | 8.3 |  |  | Nc1cccnc1C(=O)NCCCCN1CCN(c2nsc3ccccc23)CC1 |  |  | 
11 | 2.7 | 1.2 | 28 |  | O=C(NCCCCN1CCN(c2nsc3ccccc23)CC1)c1cccc2cc[nH]c12 |  |  | 
12 | 2 | 2.3 |  | 11 | Nc1sccc1C(=O)NCCCCN1CCN(c2nsc3ccccc23)CC1 | 4.8 | > 25 | 
13 | 1.3 | 1.3 | 9.6 |  | Nc1ccsc1C(=O)NCCCCN1CCN(c2nsc3ccccc23)CC1 | 0.9 | 9.7 | ED50 (Mus musculus [13]): 69.3 mg/kg; ED50 (Mus musculus [14]): 57.9 mg/kg; Ratio [15]: 7; Ratio [16]: 6
14 | 5.8 | 1.3 |  | 14 | O=C(NCCCCN1CCN(c2nsc3ccccc23)CC1)c1c[nH]c2ccccc12 | > 25 |  | 
15 | 5.8 | 0.85 | 5.8 |  | Nc1c(C(=O)NCCCCN2CCN(c3nsc4ccccc34)CC2)sc2ccccc12 | 2.2 | 51.6 | 
16 | 4.9 | 2.9 | 47 |  | O=C(NCCCCN1CCN(c2nsc3ccccc23)CC1)c1cccnc1 | 5.2 | 15.5 | 
17 | 3.6 | 0.35 | 2.2 |  | O=C(NCCCCN1CCN(c2nsc3ccccc23)CC1)c1[nH]nc2ccccc12 | < 25 | 31.8 | 
18 | 3.5 | 2.5 | 6 |  | Nc1cscc1C(=O)NCCCCN1CCN(c2nsc3ccccc23)CC1 | 1.7 | 12.6 | 

Row | SMILES | IC50 [1] [nM] | IC50 [2] [nM] | IC50 (D(2) dopamine receptor [3]) [nM] | IC50 (D(2) dopamine receptor [7]) [nM] | ED50 (Mus musculus [4]) [mg/kg] | ED50 (Mus musculus [10]) [mg/kg] | also measured
19 | Cc1nc2n(c(=O)c1CCN1CCC(c3noc4cc(F)ccc34)CC1)CCCC2 [RISPERIDONE] | 430 |  | 23 |  |  |  | ED50 (Mus musculus [8]): 3.2 mg/kg; ED50 (Mus musculus [9]): 1.4 mg/kg; ED50 (Mus musculus [5]): 0.3 mg/kg; ED50 (Mus musculus [6]): 0.9 mg/kg
